Results reported in ChEMBL document CHEMBL1201862, “PubChem BioAssay data set” (2004).
The source made the active and inactive calls.

Columns and labels:
Type in all cases: functional
[1] = molecular target: Dual specificity tyrosine-phosphorylation-regulated kinase 1A (Homo sapiens, UniProt Q13627);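 note: measured against DYRK1A as one member of a broad kinome profiling panel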
[2] = molecular target: Cyclin-dependent kinase 5 (Homo sapiens, UniProt Q00535);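 note: CDK5 measured as one member of a kinase profiling panel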
Sequence of Cyclin-dependent kinase 5 (Q00535 whole entry): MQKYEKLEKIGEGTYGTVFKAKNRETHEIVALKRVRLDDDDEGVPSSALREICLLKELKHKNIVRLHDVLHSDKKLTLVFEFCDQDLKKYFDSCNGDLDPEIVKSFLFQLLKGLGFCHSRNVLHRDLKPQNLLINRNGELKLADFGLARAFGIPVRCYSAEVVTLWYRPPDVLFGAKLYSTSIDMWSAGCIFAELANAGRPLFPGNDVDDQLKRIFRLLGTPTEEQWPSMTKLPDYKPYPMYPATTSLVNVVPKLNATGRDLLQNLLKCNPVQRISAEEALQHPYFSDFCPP

[3] = molecular target: Calcium/calmodulin-dependent protein kinase type II subunit alpha (Homo sapiens, UniProt Q9UQM7); test: Navigating the Kinome. Panel member name: CAMK2A
Sequence of Calcium/calmodulin-dependent protein kinase type II subunit alpha (Q9UQM7 whole entry, the tested form may be a part): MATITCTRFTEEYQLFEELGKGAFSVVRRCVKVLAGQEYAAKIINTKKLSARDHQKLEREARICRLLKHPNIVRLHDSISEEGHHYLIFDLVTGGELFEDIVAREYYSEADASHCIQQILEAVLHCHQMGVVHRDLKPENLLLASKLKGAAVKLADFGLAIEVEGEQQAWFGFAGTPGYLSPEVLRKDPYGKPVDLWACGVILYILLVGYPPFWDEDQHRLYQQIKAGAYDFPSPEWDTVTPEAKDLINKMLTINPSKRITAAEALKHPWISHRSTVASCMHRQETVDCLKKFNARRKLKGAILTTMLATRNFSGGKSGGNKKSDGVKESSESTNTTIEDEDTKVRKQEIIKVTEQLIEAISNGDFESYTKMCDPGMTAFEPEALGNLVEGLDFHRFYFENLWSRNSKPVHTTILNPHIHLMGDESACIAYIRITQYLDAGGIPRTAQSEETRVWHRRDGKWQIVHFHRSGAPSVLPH

[4] = molecular target: LIM domain kinase 1 (Homo sapiens, UniProt P53667); test: Navigating the Kinome. Panel member name: LIMK1
[5] = molecular target: Leucine-rich repeat serine/threonine-protein kinase 2 (Homo sapiens, UniProt Q5S007);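 note: value from a broad kinome-wide panel profiling study in which LRRK2 was one of the kinases tested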
[6] = molecular target: Protein kinase C theta type (Homo sapiens, UniProt Q04759); test: Navigating the Kinome. Panel member name: PRKCQ
[7] = molecular target: Dual specificity mitogen-activated protein kinase kinase 1 (Homo sapiens, UniProt Q02750); test: Navigating the Kinome. Panel member name: MAP2K1
Sequence of Dual specificity mitogen-activated protein kinase kinase 1 (Q02750 whole entry): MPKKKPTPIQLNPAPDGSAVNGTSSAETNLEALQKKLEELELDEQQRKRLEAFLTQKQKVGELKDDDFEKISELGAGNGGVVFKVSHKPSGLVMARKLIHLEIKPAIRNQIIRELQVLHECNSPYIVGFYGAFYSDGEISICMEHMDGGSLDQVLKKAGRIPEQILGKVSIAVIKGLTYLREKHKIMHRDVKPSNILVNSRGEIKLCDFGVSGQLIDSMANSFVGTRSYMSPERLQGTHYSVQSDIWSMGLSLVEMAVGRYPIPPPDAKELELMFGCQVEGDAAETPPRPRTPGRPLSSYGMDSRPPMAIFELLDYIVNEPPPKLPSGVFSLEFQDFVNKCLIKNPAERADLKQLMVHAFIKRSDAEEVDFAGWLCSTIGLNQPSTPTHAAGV

[8] = molecular target: ALK tyrosine kinase receptor (Homo sapiens, UniProt Q9UM73);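 note: ALK tested as one member of a kinase panel screen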
[9] = molecular target: Vascular endothelial growth factor receptor 2 (Homo sapiens, UniProt P35968)
[10] = molecular target: Activated CDC42 kinase 1 (Homo sapiens, UniProt Q07912); test: Navigating the Kinome. Panel member name: ACK1
[11] = molecular target: Focal adhesion kinase 1 (Homo sapiens, UniProt Q05397);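 note: measured as one member of a kinome panel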
[12] = molecular target: Tyrosine-protein kinase BTK (Homo sapiens, UniProt Q06187)
Sequence of Tyrosine-protein kinase BTK (Q06187 whole entry): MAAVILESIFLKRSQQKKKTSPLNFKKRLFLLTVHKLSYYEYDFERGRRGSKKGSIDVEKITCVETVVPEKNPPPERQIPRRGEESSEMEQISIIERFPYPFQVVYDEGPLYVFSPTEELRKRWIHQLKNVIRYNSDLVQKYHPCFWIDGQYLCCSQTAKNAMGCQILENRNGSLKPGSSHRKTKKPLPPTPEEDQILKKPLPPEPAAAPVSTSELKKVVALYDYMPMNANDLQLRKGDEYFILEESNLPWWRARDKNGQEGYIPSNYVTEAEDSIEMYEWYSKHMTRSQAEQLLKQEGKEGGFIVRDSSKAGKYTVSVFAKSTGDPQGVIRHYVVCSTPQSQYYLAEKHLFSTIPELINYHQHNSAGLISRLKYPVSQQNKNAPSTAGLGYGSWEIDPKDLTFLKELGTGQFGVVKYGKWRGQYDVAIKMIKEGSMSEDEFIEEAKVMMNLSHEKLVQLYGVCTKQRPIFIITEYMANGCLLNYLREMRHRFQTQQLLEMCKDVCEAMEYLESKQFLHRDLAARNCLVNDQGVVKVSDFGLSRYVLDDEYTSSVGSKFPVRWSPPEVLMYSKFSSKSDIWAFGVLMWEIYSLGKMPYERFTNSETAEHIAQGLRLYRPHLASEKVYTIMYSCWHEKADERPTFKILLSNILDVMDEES

[13] = molecular target: Dual specificity tyrosine-phosphorylation-regulated kinase 1B (Homo sapiens, UniProt Q9Y463); test: Navigating the Kinome. Panel member name: DYRK1B
Sequence of Dual specificity tyrosine-phosphorylation-regulated kinase 1B (Q9Y463 whole entry): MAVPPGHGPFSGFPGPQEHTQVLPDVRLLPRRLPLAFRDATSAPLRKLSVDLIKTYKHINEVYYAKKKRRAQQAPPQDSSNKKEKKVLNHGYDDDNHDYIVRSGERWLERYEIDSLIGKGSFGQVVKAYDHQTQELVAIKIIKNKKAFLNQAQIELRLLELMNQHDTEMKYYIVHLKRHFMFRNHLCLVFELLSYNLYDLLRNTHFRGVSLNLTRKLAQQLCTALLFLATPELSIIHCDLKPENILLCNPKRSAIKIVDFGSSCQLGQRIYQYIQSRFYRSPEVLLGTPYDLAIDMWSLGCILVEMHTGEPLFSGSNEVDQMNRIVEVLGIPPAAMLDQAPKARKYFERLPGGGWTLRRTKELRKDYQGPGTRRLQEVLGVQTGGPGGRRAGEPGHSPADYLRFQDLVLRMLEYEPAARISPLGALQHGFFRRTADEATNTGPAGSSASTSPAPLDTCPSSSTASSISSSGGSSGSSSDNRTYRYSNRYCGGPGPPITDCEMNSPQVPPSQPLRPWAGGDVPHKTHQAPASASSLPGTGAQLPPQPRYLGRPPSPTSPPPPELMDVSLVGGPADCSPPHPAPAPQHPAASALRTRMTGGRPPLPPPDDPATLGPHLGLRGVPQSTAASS

[14] = molecular target: Vascular endothelial growth factor receptor 1 (Homo sapiens, UniProt P17948);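 note: measured within a kinome-wide profiling panel, FLT1 as the panel member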
[15] = molecular target: Macrophage-stimulating protein receptor (Homo sapiens, UniProt Q04912); test: Navigating the Kinome. Panel member name: MST1R
[16] = molecular target: Proto-oncogene tyrosine-protein kinase receptor Ret (Homo sapiens, UniProt P07949);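 note: measured within a kinome-wide profiling panel, RET as the panel member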
[17] = molecular target: Casein kinase I isoform alpha (Homo sapiens, UniProt P48729)
Sequence of Casein kinase I isoform alpha (P48729 whole entry, canonical isoform): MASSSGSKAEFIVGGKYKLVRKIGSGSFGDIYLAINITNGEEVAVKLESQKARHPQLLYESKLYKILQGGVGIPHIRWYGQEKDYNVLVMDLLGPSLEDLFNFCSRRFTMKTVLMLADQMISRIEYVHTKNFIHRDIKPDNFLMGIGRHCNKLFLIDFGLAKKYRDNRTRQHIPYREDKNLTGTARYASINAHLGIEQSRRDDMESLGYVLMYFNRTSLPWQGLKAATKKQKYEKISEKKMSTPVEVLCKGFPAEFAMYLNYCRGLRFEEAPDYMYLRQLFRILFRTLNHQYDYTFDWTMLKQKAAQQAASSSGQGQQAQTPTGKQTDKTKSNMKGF

[18] = molecular target: T1, Aurora kinase A (Homo sapiens, UniProt O14965);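 note: value from the Navigating the Kinome kinase panel profiling, panel entry STK6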
T1 sequence (O14965 whole entry): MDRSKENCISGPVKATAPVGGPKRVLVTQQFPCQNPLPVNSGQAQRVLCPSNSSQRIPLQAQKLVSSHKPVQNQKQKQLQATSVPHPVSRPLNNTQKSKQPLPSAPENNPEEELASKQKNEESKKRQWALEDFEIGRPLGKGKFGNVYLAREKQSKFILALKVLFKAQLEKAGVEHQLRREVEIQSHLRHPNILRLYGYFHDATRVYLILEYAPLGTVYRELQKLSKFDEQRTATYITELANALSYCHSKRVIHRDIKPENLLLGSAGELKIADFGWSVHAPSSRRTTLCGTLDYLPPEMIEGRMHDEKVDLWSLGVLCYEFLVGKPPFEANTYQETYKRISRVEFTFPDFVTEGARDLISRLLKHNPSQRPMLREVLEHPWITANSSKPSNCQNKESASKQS

[19] = molecular target: Serine/threonine-protein kinase TAO1 (Homo sapiens, UniProt Q7L7X3)
[20] = molecular target: Tyrosine-protein kinase receptor TYRO3 (Homo sapiens, UniProt Q06418);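 note: TYRO3 value obtained as one member of a kinome-wide profiling panel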
Sequence of Tyrosine-protein kinase receptor TYRO3 (Q06418 whole entry): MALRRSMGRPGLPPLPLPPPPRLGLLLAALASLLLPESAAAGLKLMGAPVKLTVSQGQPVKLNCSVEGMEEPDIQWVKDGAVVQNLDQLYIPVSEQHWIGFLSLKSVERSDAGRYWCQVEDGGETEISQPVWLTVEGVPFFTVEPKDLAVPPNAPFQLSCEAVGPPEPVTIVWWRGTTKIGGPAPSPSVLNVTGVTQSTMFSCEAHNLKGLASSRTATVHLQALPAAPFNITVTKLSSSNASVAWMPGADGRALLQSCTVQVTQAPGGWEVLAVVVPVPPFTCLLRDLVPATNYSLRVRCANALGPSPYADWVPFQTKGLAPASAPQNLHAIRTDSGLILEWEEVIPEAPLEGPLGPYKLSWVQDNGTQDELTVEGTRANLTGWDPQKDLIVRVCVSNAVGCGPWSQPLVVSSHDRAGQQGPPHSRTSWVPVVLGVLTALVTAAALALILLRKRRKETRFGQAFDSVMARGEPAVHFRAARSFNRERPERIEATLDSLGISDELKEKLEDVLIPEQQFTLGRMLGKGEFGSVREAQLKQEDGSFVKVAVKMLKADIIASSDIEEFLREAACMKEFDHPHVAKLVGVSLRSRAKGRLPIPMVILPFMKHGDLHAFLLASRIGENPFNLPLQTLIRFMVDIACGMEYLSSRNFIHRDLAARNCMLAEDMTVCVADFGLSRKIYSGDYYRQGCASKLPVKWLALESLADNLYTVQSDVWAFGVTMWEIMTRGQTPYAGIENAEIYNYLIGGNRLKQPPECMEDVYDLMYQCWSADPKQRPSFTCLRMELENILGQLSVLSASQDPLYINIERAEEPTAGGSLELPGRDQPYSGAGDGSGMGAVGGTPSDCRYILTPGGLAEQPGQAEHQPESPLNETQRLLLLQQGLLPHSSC

[21] = molecular target: Serine/threonine-protein kinase Nek2 (Homo sapiens, UniProt P51955)
[22] = molecular target: Activin receptor type-1 (Homo sapiens, UniProt Q04771); test: Navigating the Kinome. Panel member name: ACVR1
[23] = molecular target: Mitogen-activated protein kinase 8 (Homo sapiens, UniProt P45983);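 note: value comes from one member of a kinome-wide kinase profiling panel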
[24] = molecular target: Hepatocyte growth factor receptor (Homo sapiens, UniProt P08581);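 note: kinase panel profiling across the kinome, with MET as the panel member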
[25] = molecular target: Dual specificity protein kinase CLK4 (Homo sapiens, UniProt Q9HAZ1)
[26] = molecular target: Rho-associated protein kinase 1 (Homo sapiens, UniProt Q13464);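 note: measured within a broad kinome-wide panel profiling many kinases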
[27] = molecular target: Cyclin-dependent kinase 8 (Homo sapiens, UniProt P49336); test: Navigating the Kinome. Panel member name: CDK8
[28] = molecular target: T2, Serine/threonine-protein kinase Chk1 (Homo sapiens, UniProt O14757);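 note: measured as one member of a kinome-wide kinase profiling panel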
T2 sequence (O14757 whole entry): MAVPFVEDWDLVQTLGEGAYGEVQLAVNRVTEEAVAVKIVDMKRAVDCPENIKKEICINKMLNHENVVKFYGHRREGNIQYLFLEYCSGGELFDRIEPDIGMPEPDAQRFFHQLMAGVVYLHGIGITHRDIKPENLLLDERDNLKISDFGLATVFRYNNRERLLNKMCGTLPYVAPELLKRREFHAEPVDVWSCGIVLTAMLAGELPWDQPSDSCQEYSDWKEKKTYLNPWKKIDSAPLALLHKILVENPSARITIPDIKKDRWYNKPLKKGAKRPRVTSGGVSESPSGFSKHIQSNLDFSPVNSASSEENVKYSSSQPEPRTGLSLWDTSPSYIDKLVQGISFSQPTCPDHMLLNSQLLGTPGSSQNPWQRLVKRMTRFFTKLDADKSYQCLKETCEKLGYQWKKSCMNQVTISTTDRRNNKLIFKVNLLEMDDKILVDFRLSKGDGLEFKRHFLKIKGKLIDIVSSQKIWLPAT

[29] = molecular target: Serine/threonine-protein kinase TBK1 (Homo sapiens, UniProt Q9UHD2); test: Navigating the Kinome. Panel member name: TBK1
[30] = molecular target: Tyrosine-protein kinase JAK3 (Homo sapiens, UniProt P52333)
[31] = molecular target: Tyrosine-protein kinase JAK2 (Homo sapiens, UniProt O60674);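 note: JAK2 tested as one member of a kinase panel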
[32] = molecular target: Fibroblast growth factor receptor 1 (Homo sapiens, UniProt P11362)
[33] = molecular target: Death-associated protein kinase 3 (Homo sapiens, UniProt O43293);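 note: measured as one member of a kinome-wide profiling panel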
Sequence of Death-associated protein kinase 3 (O43293 whole entry): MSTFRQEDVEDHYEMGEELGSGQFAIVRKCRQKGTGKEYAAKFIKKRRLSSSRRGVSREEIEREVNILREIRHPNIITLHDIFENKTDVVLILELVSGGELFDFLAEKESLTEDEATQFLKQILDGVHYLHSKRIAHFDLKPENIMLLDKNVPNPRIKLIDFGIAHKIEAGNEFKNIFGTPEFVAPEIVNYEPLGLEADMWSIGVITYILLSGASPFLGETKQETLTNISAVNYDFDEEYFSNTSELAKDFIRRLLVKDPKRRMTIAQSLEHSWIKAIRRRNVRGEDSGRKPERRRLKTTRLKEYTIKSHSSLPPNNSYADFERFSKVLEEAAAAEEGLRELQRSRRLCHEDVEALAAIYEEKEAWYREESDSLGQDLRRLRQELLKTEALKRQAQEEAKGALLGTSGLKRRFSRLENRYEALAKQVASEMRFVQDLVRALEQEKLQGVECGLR

[34] = molecular target: Ribosomal protein S6 kinase alpha-3 (Homo sapiens, UniProt P51812);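 note: measured within a kinome-wide profiling panel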
Sequence of Ribosomal protein S6 kinase alpha-3 (P51812 whole entry): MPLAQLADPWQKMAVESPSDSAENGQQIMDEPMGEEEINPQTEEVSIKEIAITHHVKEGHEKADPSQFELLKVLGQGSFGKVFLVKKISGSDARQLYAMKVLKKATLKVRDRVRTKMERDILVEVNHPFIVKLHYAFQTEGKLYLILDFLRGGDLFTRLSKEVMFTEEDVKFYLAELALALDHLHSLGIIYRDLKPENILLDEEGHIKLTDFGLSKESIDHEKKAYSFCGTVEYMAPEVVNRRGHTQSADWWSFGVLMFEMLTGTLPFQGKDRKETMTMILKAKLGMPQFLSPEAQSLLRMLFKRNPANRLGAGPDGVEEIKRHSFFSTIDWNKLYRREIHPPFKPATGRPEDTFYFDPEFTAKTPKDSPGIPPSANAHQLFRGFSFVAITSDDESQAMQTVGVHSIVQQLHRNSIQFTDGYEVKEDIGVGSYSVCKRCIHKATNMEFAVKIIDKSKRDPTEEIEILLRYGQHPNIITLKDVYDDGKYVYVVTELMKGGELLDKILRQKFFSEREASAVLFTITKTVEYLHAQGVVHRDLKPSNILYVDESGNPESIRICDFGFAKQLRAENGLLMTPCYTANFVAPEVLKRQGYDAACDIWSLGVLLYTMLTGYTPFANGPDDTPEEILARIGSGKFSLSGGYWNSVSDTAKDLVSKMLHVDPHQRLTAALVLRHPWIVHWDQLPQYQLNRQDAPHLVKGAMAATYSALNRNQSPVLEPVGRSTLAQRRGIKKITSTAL

[35] = molecular target: Serine/threonine-protein kinase pim-1 (Homo sapiens, UniProt P11309)

Row | SMILES | Ki [1] | Ki [2] | Ki [3] | Ki [4] | Ki [5] | Ki [6] | Ki [7] | Ki [8] | Ki [9] | Ki [10] | Ki [11] | Ki [12] | Ki [13] | Ki [14] | Ki [15] | Ki [16] | Ki [17] | Ki [18] | Ki [19] | Ki [20] | other results
1 | O=c1[nH][nH]c2ccc(Br)cc12 | 1.58 µM (active) | 3.16 µM (active) | 31.6 µM (active) | 3.16 µM (active) | 3.98 µM (active) | 31.6 µM (active) | 25.1 µM (active) | 79.4 µM (active) | 63.1 µM (active) | 31.6 µM (active) | 31.6 µM (active) | 31.6 µM (active) | 3.16 µM (active) | 7.94 µM (active) | 31.6 µM (active) | 25.1 µM (active) | 7.94 µM (active) | 7.94 µM (active) | 79.4 µM (active) | 10 µM (active) | Ki [21]: 6.31 µM (active); Ki [22]: 7.94 µM (active); Ki [23]: 25.1 µM (active); Ki [24]: 12.6 µM (active); Ki [25]: 1.26 µM (active); Ki [26]: 15.8 µM (active); Ki [27]: 10 µM (active); Ki [28]: 2.51 µM (active); Ki [29]: 31.6 µM (active); Ki [30]: 25.1 µM (active); Ki [31]: 25.1 µM (active); Ki [32]: 31.6 µM (active); Ki [33]: 7.94 µM (active); Ki [34]: 31.6 µM (active); Ki [35]: 15.8 µM (active)
2 | COc1cc2c(cc1Nc1nc(Nc3cccc(F)c3C(N)=O)c3cc[nH]c3n1)N(C(=O)CN(C)C)CC2 | > 1.58 µM (inactive) | > 3.16 µM (inactive) | > 3.98 µM (inactive) | > 3.16 µM (inactive) | 0.00794 µM (active) | > 2.51 µM (inactive) | > 3.16 µM (inactive) | 0.00126 µM (active) | > 2.51 µM (inactive) | 2 µM (active) | 0.0398 µM (active) | > 6.31 µM (inactive) | 1.26 µM (active) | > 3.98 µM (inactive) | > 3.98 µM (inactive) | > 3.16 µM (inactive) | 1.26 µM (active) | > 1.58 µM (inactive) | 2 µM (active) | > 3.16 µM (inactive) | Ki [21]: > 3.16 µM (inactive); Ki [22]: > 3.98 µM (inactive); Ki [23]: 0.158 µM (active); Ki [24]: > 2.51 µM (inactive); Ki [25]: 0.02 µM (active); Ki [26]: 2 µM (active); Ki [27]: > 3.98 µM (inactive); Ki [28]: 2.51 µM (active); Ki [29]: > 3.16 µM (inactive); Ki [30]: > 5.01 µM (inactive); Ki [31]: > 2.51 µM (inactive); Ki [32]: > 3.98 µM (inactive); Ki [33]: 0.1 µM (active); Ki [34]: 0.631 µM (active); Ki [35]: 3.98 µM (active)
